Measured values reported in US6506552B2, “Amino acid-trehalose composition” (Meiji Dairies Corporation, priority 1998, dated 2003).

Experiment: Forced swimming of mice in a running water pool after oral administration; blood lactic acid, blood sugar and free fatty acid levels
Assay type: in vivo, mice (male; ddY)
Procedure: This experiment was carried out according to the method disclosed in Jpn. J. Phys. Fitness Sports Med., 1995, 44:225-238. More specifically, mice (male; ddY) (6-week-old; 5 animals per group) were fasted at room temperature for 16 hours, followed by oral administration of a 1.8% by weight aqueous solution containing the composition VAAM or HVAAM as set forth in Table 1 or trehalose; an aqueous solution containing 1.8% by weight of VAAM and 2% by weight of trehalose; or an aqueous solution containing 1.8% by weight of VAAM analogue as set forth in Table 1 and 2% by weight of trehalose in an amount of 37.5 μl/g body weight and thereafter giving the mice a rest at room temperature for 30 minutes. Then the mice were forced to swim in a running water pool (a water tank having a diameter of 32 cm and a depth of 30 cm, which was filled with water maintained at 35° C. and in which the water was circulated at a rate of 8 m/min using a circulator) for 30 minutes. After forcing the mice to swim, they were inspected for the lactic acid level in the blood, the blood sugar (glucose) level and the free fatty acid level in the blood.
The lactic acid level in the blood was determined using a clinical reagent available from Sigma Company, by measuring absorbance at 340 nm due to NADH, each molecule of which was formed when lactic acid was converted into pyruvic acid because of the action of lactic acid dehydrogenase. The free fatty acid level in the serum was determined by centrifuging the collected blood and then quantitatively analyzing the fatty acids present in the supernatant. More specifically, the hydrogen peroxide formed by the action of acyl-CoA synthetic enzyme and acyl-CoA oxidase was reacted with a peroxidase, followed by determination of the absorbance at 550 nm due to the stained 3-methyl-N-ethyl-N-(2-hydroxyethyl)aniline and 4-aminoantipyrine to thus determine the free fatty acid level.

## OC[C@H]1O[C@H](O[C@H]2O[C@H](CO)[C@@H](O)[C@H](O)[C@H]2O)[C@H](O)[C@@H](O)[C@@H]1O [Tre, α, α-trehalose]
Blood glucose, mice fasted 16 h, oral 37.5 μl/g body weight, 30 min rest, after 30 min forced swimming
  Blood Sugar Level: 83.14 mg/dL
blood, mice fasted 16 h, oral 37.5 μl/g body weight, 30 min rest, after 30 min forced swimming
  Lactic Acid Level: 46.69 mg/dL
Free fatty acid in serum, mice fasted 16 h, oral 37.5 μl/g body weight, 30 min rest, after 30 min forced swimming
  NEFA: 0.97 mEq/l
mice, after 30 min swimming, FIG. 3, p<0.05
  free fatty acid level in the blood compared with the group to which 1.8% VAAM was administered: significantly higher
mice, after load of swimming over 30 minutes, FIG. 1
  lactic acid level in the blood compared with the group to which VAAM was administered: did not show any significant difference
